Values joined by “and” are separate entries in the source; they are usually repeats but may differ in a detail not shown here. Identical values can stand only once. Like-named read-outs stand apart in the source and are kept apart here. Each block holds one molecule with its values, some of them ahead of it. Starred links: 1 amine or outer side, 2 acyl side, 3 side chain; linkers in the order of their positions; H or OH if unused. Non-standard residues stand in square brackets, D forms with d. Residues, ends and D or L forms follow the SMILES beside them. *: point of attachment. X1 = CCCCC[C@H](O[*:1])C(=O)[*:2]; Ahp(2) = CCCCC[C@H](N)C(=O)O; dNMeA = CN[C@H](C)C(=O)O; Boc = CC(C)(C)OC(=O)*; OBn = c1ccc(CO*)cc1
What was measured:
[1] = PAMPA, ratio-based method, series 2 macrocycles, previously reported; ref Thorpe et al., Chem. Sci. 2024, 15, 14977; cited from earlier work
[2] = PAMPA, permeability assay across an artificial membrane; details: increase: difference between percent diffusion of macrocycle vs linear counterpart
Caco‐2 = test: Experimental Caco‐2 permeability; type: in vitro ADME; details: Caco‐2 experiments, series 2
Description: Johnston et al. Supporting information
5.1 Comparison of Experimental Caco‐2 Papp to Calculated LogP
Experimental Caco‐2 vs. Calculated Permeabilities fo r Series 2
*C2.3 was not detected in Caco‐2 experiments
VI. LC/MS and ELSD Traces
In all cases, the large peak near the beginning of the run (R.T. 2‐6 minutes), is the DMSO solvent front.
(also on this page, place not known: 00 . 511 . 522 . 533 . 5 Caco2 Papp (x 10‐6 cm/s) Experimental for)

[3] = PAMPA
PAMPA [4] = details: UV detection, initial concentration 500 uM
[5] = UV detection
[6] = initial concentration 500 uM, UV detection
PAMPA [7] = details: UV detection
[8] = PAMPA; remark: listed apart in the source
[9] = calculated using Supplement Equation 1, UV detection

SMILES: CCCCC[C@@H]1NC(=O)[C@@H](C)N(C)C(=O)[C@H](CCCCC)OC(=O)[C@@H](C)N(C)C(=O)[C@H](CCCCC)OC(=O)[C@@H](C)N(C)C(=O)[C@H](CCCCC)NC(=O)[C@@H](C)N(C)C1=O [Compound C2.2] (cyclo([Ahp(2)][dNMeA][Ahp(2)][dNMeA][X1][dNMeA][X1][dNMeA]))
LogPapp [1]: -5.05 ± 0.03
Δ % diffusion [2]: ↑17%

SMILES: CCCCC[C@@H]1NC(=O)[C@@H](C)N(C)C(=O)[C@H](CCCCC)OC(=O)[C@@H](C)N(C)C(=O)[C@H](CCCCC)NC(=O)[C@@H](C)N(C)C(=O)[C@H](CCCCC)OC(=O)[C@@H](C)N(C)C1=O [Compound C2.3] (cyclo([Ahp(2)][dNMeA][X1][dNMeA][Ahp(2)][dNMeA][X1][dNMeA]))
Experimental Caco‐2 Papp (Caco‐2): not detected
LogPapp [1]: -5.23 ± 0.04
Δ % diffusion [2]: ↑10%

SMILES: CCCCC[C@@H]1NC(=O)[C@@H](C)N(C)C(=O)[C@H](CCCCC)NC(=O)[C@@H](C)N(C)C(=O)[C@H](CCCCC)OC(=O)[C@@H](C)N(C)C(=O)[C@H](CCCCC)NC(=O)[C@@H](C)N(C)C1=O [Compound C2.4] (cyclo([Ahp(2)][dNMeA][Ahp(2)][dNMeA][Ahp(2)][dNMeA][X1][dNMeA]))
LogPapp [1]: -5.33 ± 0.07
Δ % diffusion [2]: ↑7%

SMILES: CCCCC[C@@H]1NC(=O)[C@@H](C)N(C)C(=O)[C@H](CCCCC)NC(=O)[C@@H](C)N(C)C(=O)[C@H](CCCCC)NC(=O)[C@@H](C)N(C)C(=O)[C@H](CCCCC)NC(=O)[C@@H](C)N(C)C1=O [Compound C2.5] (cyclo([Ahp(2)][dNMeA][Ahp(2)][dNMeA][Ahp(2)][dNMeA][Ahp(2)][dNMeA]))
Δ % diffusion ([3]; 500 uM): ↑6%
LogPapp [1]: -5.31 ± 0.04

LogPapp [3]: -5.48 ± 0.04
Δ % diffusion [3]: ↑10%
% recovery ([5]; Well 1 / %R, Well 1): 96% and 88%
% recovery ([5]; Well 2 / %R, Well 2): 91% and 90%
% recovery ([5]; Well 4 / %R, Well 4): 92% and 88%
% recovery ([5]; Well 5 / %R, Well 5): 87% and 85%
Papp (PAMPA [7]; Papp (x 10^-6 cm/s) / [row 1]): 3.76 ×10⁻⁶ cm/s
Papp (PAMPA [7]; Papp (x 10^-6 cm/s) / [row 2]): 3.12 ×10⁻⁶ cm/s
Papp (PAMPA [7]; Papp (x 10^-6 cm/s) / [row 3]): 3.36 ×10⁻⁶ cm/s
Papp (PAMPA [7]; Papp (x 10^-6 cm/s) / [row 4]): 3.52 ×10⁻⁶ cm/s
Papp (PAMPA [7]; Papp (x 10^-6 cm/s) / [row 5]): 3.88 ×10⁻⁶ cm/s
Papp (PAMPA [7]; Papp (x 10^-6 cm/s) / [row 6]): 3.19 ×10⁻⁶ cm/s
Papp (PAMPA [7]; Papp (x 10^-6 cm/s) / [row 7]): 3.05 ×10⁻⁶ cm/s
Papp (PAMPA [7]; Papp (x 10^-6 cm/s) / [row 8]): 2.93 ×10⁻⁶ cm/s
Papp (PAMPA [7]; Papp (x 10^-6 cm/s) / [row 9]): 3.14 ×10⁻⁶ cm/s
Papp (PAMPA [7]; Papp (x 10^-6 cm/s) / [row 10]): 3.2 ×10⁻⁶ cm/s
Papp [8]: 3.32 ± 0.31 ×10⁻⁶ cm/s
%T ([9]; Well 1 / %T, Well 1): 0.55% and 0.49%
%T ([9]; Well 2 / %T, Well 2): 0.56% and 0.52%
%T ([9]; Well 3 / %T, Well 3): 0.52% and 0.55%
%T ([9]; Well 4 / %T, Well 4): 0.5% and 0.53%
%T ([9]; Well 5 / %T, Well 5): 0.54% and 0.53%
SMILES: CCCCC[C@H](NC(=O)[C@@H](C)N(C)C(=O)[C@H](CCCCC)OC(=O)[C@@H](C)N(C)C(=O)[C@H](CCCCC)NC(=O)[C@@H](C)N(C)C(=O)[C@H](CCCCC)OC(=O)[C@@H](C)N(C)C(=O)OC(C)(C)C)C(=O)OCc1ccccc1 [Compound L2.3] (Boc-[dNMeA][X1][dNMeA][Ahp(2)][dNMeA][X1][dNMeA][Ahp(2)]-OBn)
Acceptor Concentration (PAMPA [4]; Acceptor Concentration (uM) / [row 1]): 89.6 µM
Acceptor Concentration (PAMPA [4]; Acceptor Concentration (uM) / [row 2]): 71.9 µM
Acceptor Concentration (PAMPA [4]; Acceptor Concentration (uM) / [row 3]): 75.1 µM
Acceptor Concentration (PAMPA [4]; Acceptor Concentration (uM) / [row 4]): 81.3 µM
Acceptor Concentration (PAMPA [4]; Acceptor Concentration (uM) / [row 5]): 83.9 µM
Acceptor Concentration (PAMPA [4]; Acceptor Concentration (uM) / [row 6]): 71.2 µM
Acceptor Concentration (PAMPA [4]; Acceptor Concentration (uM) / [row 7]): 69.7 µM
Acceptor Concentration (PAMPA [4]; Acceptor Concentration (uM) / [row 8]): 66.2 µM
Acceptor Concentration (PAMPA [4]; Acceptor Concentration (uM) / [row 9]): 69.9 µM
Acceptor Concentration (PAMPA [4]; Acceptor Concentration (uM) / [row 10]): 69 µM
donor concentration after incubation ([6]; Well 1 / [donor], Well 1): 388 µM and 369 µM
donor concentration after incubation ([6]; Well 2 / [donor], Well 2): 382 µM and 380 µM
donor concentration after incubation ([6]; Well 3 / [donor], Well 3): 369 µM and 377 µM
donor concentration after incubation ([6]; Well 4 / [donor], Well 4): 380 µM and 370 µM
donor concentration after incubation ([6]; Well 5 / [donor], Well 5): 353 µM and 358 µM

— article PMC11995216, “End-to-End Backbone Cyclization Enhances Passive Permeability of bRo5 Oligomeric Depsipeptides with Nonlinear Size Dependence” (ACS Medicinal Chemistry Letters, 2025)
